Measured values published in patent US6440986B2, “HIV Inhibiting pyrimidine derivatives” (Janssen Pharmaceutica, N.V., priority 1998, dated 2002).
Structures can show the parent of a compound that is named as a salt. Where two headings read alike, the source gives them in different places.

How the values were obtained:
[1] = test system: HIV-1; assay: in vitro anti-HIV assay: inhibition of the HIV-induced cytopathic effect in MT-4 cells (MTT); format: cell-based; details: OD 540 nm
Method: (§1) A rapid, sensitive and automated assay procedure was used for the in vitro evaluation of anti-HIV agents. An HIV-1 transformed T4-cell line, MT-4, which was previously shown (Koyanagi et al., Int. J. Cancer, 36, 445-451, 1985) to be highly susceptible to and permissive for HIV infection, served as the target cell line. Inhibition of the HIV-induced cytopathic effect was used as the end point. The viability of both HIV- and mock-infected cells was assessed spectrophotometrically via the in situ reduction of 3-(4,5-dimethylthiazol-2-yl)-2,5-diphenyltetrazolium bromide (MTT). […] The percent protection achieved by the compound in HIV-infected cells was calculated by the following formula: [formula]
(§2) whereby (ODT)HIV is the optical density measured with a given concentration of the test compound in HIV-infected cells; (ODC)HIV is the optical density measured for the control untreated HIV-infected cells: (ODC)MOCK is the optical density measured for the control untreated mock-infected cells; all optical density values were determined at 540 nm. […] The ratio of CC50 to IC50 was defined as the selectivity index (SI).

[2] = cytotoxicity in mock-infected MT-4 cells (MTT); format: cell-based; details: human, mock-infected MT-4 cells, 50% cytotoxic concentration; reduces absorbance of mock-infected MT-4 control by 50%; MTT
Method: as §1, with “An HIV-1 transformed T4-cell line, MT-4, which was previously shown (Koyanagi et al., Int. J. Cancer, 36, 445-451, 1985) to be highly susceptible to and permissive for HIV infection, served as the target cell line.” left out
as §2

[3] = test system: MT-4 cells (mock-infected); assay: cytotoxicity in mock-infected MT-4 cells (MTT); format: cell-based
Method: as §1, with “An HIV-1 transformed T4-cell line, MT-4, which was previously shown (Koyanagi et al., Int. J. Cancer, 36, 445-451, 1985) to be highly susceptible to and permissive for HIV infection, served as the target cell line.” left out
as §2

[4] = Human immunodeficiency virus 1, MT4, dose achieving 50% protection of HIV-infected MT-4 cells against cytopathic effect
[5] = dose achieving 50% protection of HIV-infected MT-4 cells against cytopathic effect
[6] = 50% cytotoxic concentration, reduces absorbance of mock-infected MT-4 control by 50%, MTT, read-out: CC50

SMILES	IC50 [1, 4] [nM]	CC50 [2] [nM]	melting point [°C]	IC50 [1, 5] [nM]	CC50 [3] [nM]	CC50 [3, 6] [nM]
CN(C)C=Nc1cc(Cc2c(Cl)cccc2Cl)nc(Nc2ccc(C#N)cc2)n1 [Compound 26, N′-[2-[(4-cyanophenyl)amino]-6-[(2,6-dichlorophenyl)methyl]-4-pyrimidinyl]-N,N-dimethylmethanimidamide]	11	33500	175 to 180			
Cc1cnc(Nc2ccc(C#N)cc2)nc1Nc1c(C)cc(C#N)cc1C [Compound 89, 4-[[2-[(4-cyanophenyl)amino]-5-methyl-4-pyrimidinyl]amino]-3,5-dimethylbenzonitrile]	0.7	400				
N#Cc1ccc(Nc2nc(Cc3c(Cl)cccc3Cl)cc(NCCN3CCCC3)n2)cc1 [Compound 13, 4-[[4-[(2,6-dichloro-phenyl)methyl]-6-[[2-(1-pyrrolidinyl)ethyl]amino]-2-pyrimidinyl]amino]benzonitrile]	5	7800	80 to 85			
Cc1cc(C)c(Nc2ccnc(Nc3ccc(C#N)cc3)n2)c(C)c1 [Compound 52, 4-[[4-[(2,4,6-trimethylphenyl)amino]-2-pyrimidinyl]amino]benzonitrile]	1	2080				
Cc1cc(C)c(Nc2ccnc(Nc3ccc(C(N)=O)cc3)n2)c(C)c1 [Compound 100, 4-[[4-[(2,4,6-trimethylphenyl)amino]-2-pyrimidinyl]amino]benzamide]	75	800				
N#Cc1ccc(Nc2nc(Cc3c(Cl)cccc3Cl)cc(NCCCO)n2)cc1 [Compound 3, 4-[[4-[(2,6-dichloro-phenyl)methyl]-6-[(3-hydroxypropyl)amino]-2-pyrimidinyl]amino]benzonitrile]	16	37400				
CCCCCCCC(=O)Nc1cc(Cc2c(Cl)cccc2Cl)nc(Nc2ccc(C#N)cc2)n1 [Compound 17, N-[6-[(2,6-dichloro-phenyl)methyl]-2-[(4-cyano-phenyl)amino]-4-pyrimidinyl]octanamide]	167	9100	135 to 137			
Cc1cc(Br)c(Nc2ccnc(Nc3ccc(C#N)cc3)n2)c(Br)c1 [Compound 61, 4-[[4-[(2,6-dibromo-4-methylphenyl)amino]-2-pyrimidinyl]amino]benzonitrile]	0.7	100				
Cc1cc(C)c(Oc2ccnc(Nc3ccc(C#N)cc3)n2)c(C)c1 [Compound 58, 4-[[4-(2,4,6-trimethylphenoxy)-2-pyrimidinyl]amino]benzonitrile]	2.9	> 100000				
N#Cc1ccc(Nc2nc(Cc3c(Cl)cccc3Cl)cc(NC(=O)CN3CCCCC3)n2)cc1 [Compound 25, N-[6-[(2,6-dichloro-phenyl)methyl]-2-[(4-cyano-phenyl)amino]-4-pyrimidinyl]-1-piperidine-acetamide]	79	> 100000	175 to 180			
N#Cc1ccc(Nc2nc(Cc3c(Cl)cccc3Cl)cc(NCCc3ccccn3)n2)cc1 [Compound 16]				389	41200	
N#Cc1ccc(Nc2nccc(Nc3c(Cl)cc(C(F)(F)F)cc3Cl)n2)cc1 [Compound 66, 4-[[4-[[2,6-dichloro-4-(trifluoromethyl)-phenyl]amino]-2-pyrimidinyl]amino]benzonitrile]	8.5	19900				
Cc1cc(C)c(Nc2ccnc(Nc3ccc(C#N)c(N)c3)n2)c(C)c1 [Compound 102]				8.2		500
Nc1cc(Cc2c(Cl)cccc2Cl)nc(Nc2ccc(Br)cn2)n1 [Compound 32]				403		> 100000
N#Cc1ccc(Nc2nccc(Nc3c(Cl)cc(Cl)cc3Cl)n2)cc1 [Compound 72]				0.7	500	
Cc1c(Cc2c(Cl)cccc2Cl)nc(N)nc1Nc1ccc(C#N)cc1 [Compound 46]				45200		> 100000
N#Cc1ccc(Nc2cc(Cc3c(Cl)cccc3Cl)nc(NCCCN3CCCC3=O)n2)cc1 [Compound 39, 4-[[6-[(2,6-dichloro-phenyl)methyl]-2-[[3-(2-oxo-1-pyrrolidinyl)propyl]amino]-4-pyrimidinyl]amino]benzonitrile]	1530	> 100000				

SMILES	IC50 [1, 4] [nM]	CC50 [2] [nM]	melting point [°C]	IC50 [1, 5] [nM]	CC50 [3] [nM]	CC50 [3, 6] [nM]
N#Cc1ccc(Nc2nc(Cc3c(Cl)cccc3Cl)cc(NO)n2)cc1 [Compound 15, 4-[[4-[(2,6-dichloro-phenyl)methyl]-6-(hydroxyamino)-2-pyrimidinyl]amino]benzonitrile dihydrobromide.pentahydrate]				3	9000	
Cc1cc(C)c(Nc2ccnc(Nc3ccc(C(N)=O)c(N)c3)n2)c(C)c1 [Compound 101]				53	29500	
Cc1cnc(Nc2ccc(C#N)cc2)nc1Nc1c(Br)cc(C(C)C)cc1Br [Compound 88]				2.7	2100	
N#Cc1ccc(Nc2nccc(NCc3ccccc3)n2)cc1 [Compound 104]				3.4	18600	
N#Cc1ccc(Nc2nccc(Nc3c(Cl)cc(F)cc3Br)n2)cc1 [Compound 67]				2.4	400	
Cc1cnc(Nc2ccc(C#N)cc2)nc1Nc1c(C)cc(Cl)cc1C [Compound 82]				2.6	400	
N#Cc1ccc(Nc2nccc(Nc3c(Cl)cccc3Cl)n2)cc1 [Compound 65]				180	200	
Cc1cc(C)c(Nc2ccnc(Nc3ccc(Br)cn3)n2)c(C)c1 [Compound 98]				2000	13800	
CCCc1cc(Br)c(Nc2ccnc(Nc3ccc(C#N)cc3)n2)c(Br)c1 [Compound 79]				3.1	4800	
Cc1cc(Cl)cc(Br)c1Oc1ccnc(Nc2ccc(C#N)cc2)n1 [Compound 74]				10	> 100000	
Cc1c(Cc2c(Cl)cccc2Cl)nc(N)nc1Nc1ccc(Br)cc1 [Compound 48]				44200		> 100000
Cc1ccc(Nc2nc(N)cc(Cc3c(Cl)cccc3Cl)n2)cc1 [Compound 35]				103		42300
Cc1cc(C)c(Sc2nc(Nc3ccc(C#N)cc3)ncc2C)c(C)c1 [Compound 86]				10	> 100000	
CCCCCCCCCCCC(=O)Nc1cc(Cc2c(Cl)cccc2Cl)nc(Nc2ccc(C#N)cc2)n1 [Compound 18]				2100	59900	
N#Cc1ccc(Nc2nc(Cc3c(Cl)cccc3Cl)cc(NCC(O)c3ccccc3)n2)cc1 (stereo not drawn) [Compound 4]				315	> 100000	
Cc1cnc(Nc2ccc(C#N)cc2)nc1Nc1c(C)cc(Br)cc1C [Compound 85]				2	400	
N#Cc1ccc(Nc2cc(Cc3c(Cl)cccc3Cl)nc(N)n2)cc1 [Compound 45]				10		56300
